Cc1cc(C(=O)O)ccc1[N+](=O)[O-]
Details | solubility (mole fraction)
in isobutanol, 306.95 K | 0.009
in isobutanol, 309.55 K | 0.0105
in isobutanol, 315.75 K | 0.0132
in isobutanol, 319.55 K | 0.0158
in isobutanol, 323.85 K | 0.0192
in isobutanol, 328.95 K | 0.0235
in isobutanol, 333.95 K | 0.0283
in isobutanol, 337.95 K | 0.0332
in isobutanol, 342.15 K | 0.0391
in isobutanol, 346.65 K | 0.0457
in n-butanol, 305.15 K | 0.013
in n-butanol, 309.55 K | 0.0153
in n-butanol, 314.95 K | 0.0177
in n-butanol, 318.35 K | 0.0201
in n-butanol, 321.35 K | 0.0228
in n-butanol, 324.35 K | 0.026
in n-butanol, 327.95 K | 0.03
in n-butanol, 332.05 K | 0.0349
in n-butanol, 336.75 K | 0.0405
in n-butanol, 341.25 K | 0.047
in n-butanol, 345.35 K | 0.0546
in sec-butanol, 304.55 K | 0.0142
in sec-butanol, 307.65 K | 0.0166
in sec-butanol, 311.55 K | 0.0199
in sec-butanol, 316.25 K | 0.0243
in sec-butanol, 321.35 K | 0.0297
in sec-butanol, 326.15 K | 0.0359
in sec-butanol, 331.15 K | 0.0428
in sec-butanol, 335.25 K | 0.05
in sec-butanol, 339.25 K | 0.0578
in sec-butanol, 343.55 K | 0.0667
in tert-butanol, 304.35 K | 0.0193
in tert-butanol, 306.95 K | 0.0229
in tert-butanol, 310.15 K | 0.0271
in tert-butanol, 314.95 K | 0.0321
in tert-butanol, 317.95 K | 0.0372
in tert-butanol, 321.65 K | 0.043
in tert-butanol, 325.85 K | 0.0493
in tert-butanol, 329.45 K | 0.0556
in tert-butanol, 333.05 K | 0.0627
in tert-butanol, 336.35 K | 0.0703
in tert-butanol, 339.65 K | 0.0791
in tert-butanol, 343.65 K | 0.0878
in tert-butanol, 345.25 K | 0.0915

Cc1cccc(C(=O)O)c1[N+](=O)[O-]
Details | solubility (mole fraction)
in isobutanol, 297.15 K | 0.0102
in isobutanol, 300.65 K | 0.0119
in isobutanol, 303.45 K | 0.0138
in isobutanol, 306.55 K | 0.0161
in isobutanol, 311.15 K | 0.0193
in isobutanol, 315.05 K | 0.0227
in isobutanol, 317.85 K | 0.0268
in isobutanol, 322.15 K | 0.0314
in isobutanol, 326.25 K | 0.0367
in isobutanol, 330.35 K | 0.0425
in isobutanol, 333.45 K | 0.0486
in isobutanol, 337.15 K | 0.0558
in n-butanol, 300.75 K | 0.0177
in n-butanol, 304.15 K | 0.0199
in n-butanol, 307.55 K | 0.0228
in n-butanol, 312.55 K | 0.0264
in n-butanol, 316.15 K | 0.0304
in n-butanol, 319.85 K | 0.0351
in n-butanol, 324.15 K | 0.0406
in n-butanol, 328.25 K | 0.0466
in n-butanol, 332.25 K | 0.0529
in n-butanol, 335.95 K | 0.0597
in n-butanol, 339.95 K | 0.0676
in n-butanol, 343.45 K | 0.0742
in sec-butanol, 305.05 K | 0.024
in sec-butanol, 307.65 K | 0.0272
in sec-butanol, 311.15 K | 0.0314
in sec-butanol, 315.25 K | 0.0373
in sec-butanol, 319.85 K | 0.0447
in sec-butanol, 323.95 K | 0.053
in sec-butanol, 328.85 K | 0.0622
in sec-butanol, 333.35 K | 0.0718
in sec-butanol, 337.65 K | 0.0817
in sec-butanol, 342.25 K | 0.0921
in sec-butanol, 346.25 K | 0.102
in tert-butanol, 301.35 K | 0.0307
in tert-butanol, 304.05 K | 0.0328
in tert-butanol, 306.25 K | 0.0366
in tert-butanol, 310.05 K | 0.0442
in tert-butanol, 314.75 K | 0.0531
in tert-butanol, 318.95 K | 0.0619
in tert-butanol, 323.05 K | 0.0711
in tert-butanol, 327.35 K | 0.0802
in tert-butanol, 331.45 K | 0.0898
in tert-butanol, 335.95 K | 0.0999
in tert-butanol, 340.65 K | 0.111

Cc1ccc([N+](=O)[O-])c(C(=O)O)c1
Details | solubility (mole fraction)
in isobutanol, 293.75 K | 0.113
in isobutanol, 299.15 K | 0.133
in isobutanol, 305.75 K | 0.153
in isobutanol, 311.15 K | 0.173
in isobutanol, 317.55 K | 0.193
in isobutanol, 322.95 K | 0.209
in isobutanol, 328.15 K | 0.227
in isobutanol, 333.65 K | 0.243
in n-butanol, 290.65 K | 0.167
in n-butanol, 292.15 K | 0.172
in n-butanol, 294.15 K | 0.183
in n-butanol, 297.75 K | 0.199
in n-butanol, 302.85 K | 0.218
in n-butanol, 307.15 K | 0.237
in n-butanol, 311.65 K | 0.256
in n-butanol, 315.15 K | 0.275
in n-butanol, 319.75 K | 0.295
in n-butanol, 323.85 K | 0.316
in n-butanol, 328.15 K | 0.338
in sec-butanol, 290.15 K | 0.185
in sec-butanol, 292.45 K | 0.199
in sec-butanol, 297.65 K | 0.225
in sec-butanol, 303.15 K | 0.253
in sec-butanol, 309.95 K | 0.28
in sec-butanol, 315.35 K | 0.305
in sec-butanol, 321.15 K | 0.329
in sec-butanol, 326.15 K | 0.352
in sec-butanol, 330.55 K | 0.372
in tert-butanol, 301.55 K | 0.255
in tert-butanol, 305.15 K | 0.274
in tert-butanol, 309.85 K | 0.295
in tert-butanol, 314.45 K | 0.318
in tert-butanol, 318.15 K | 0.341
in tert-butanol, 322.75 K | 0.366
in tert-butanol, 327.35 K | 0.392
in tert-butanol, 332.05 K | 0.418
in tert-butanol, 336.55 K | 0.445
in tert-butanol, 339.55 K | 0.473

Reference: BigSolDB 2.1
